Measurements from ChEMBL document CHEMBL1201862, “PubChem BioAssay data set” (2004).
Activity calls are given as the source filed them.

Columns and labels:
[1] = C. albicans growth with fluconazole, confirmation, fluorescence, retest (AID 2467); format: functional, cell-based
HEK293 [2] = test: HEK cell cytotoxicity by LDH release, dose response, cytotoxicity control for IDE activator project, fluorescence, HEK cells (AID 588440); format: functional, cell-based; conditions: Homo sapiens;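 note: cytotoxicity by LDH release measuring loss of membrane integrity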
Insulin-degrading enzyme [3] = molecular target: T1, Insulin-degrading enzyme (Homo sapiens, UniProt P14735); test: activators of endogenous IDE in HEK cells, dose response, cell-based, fluorescence polarization (AID 588439); format: functional
T1 sequence (P14735 whole entry): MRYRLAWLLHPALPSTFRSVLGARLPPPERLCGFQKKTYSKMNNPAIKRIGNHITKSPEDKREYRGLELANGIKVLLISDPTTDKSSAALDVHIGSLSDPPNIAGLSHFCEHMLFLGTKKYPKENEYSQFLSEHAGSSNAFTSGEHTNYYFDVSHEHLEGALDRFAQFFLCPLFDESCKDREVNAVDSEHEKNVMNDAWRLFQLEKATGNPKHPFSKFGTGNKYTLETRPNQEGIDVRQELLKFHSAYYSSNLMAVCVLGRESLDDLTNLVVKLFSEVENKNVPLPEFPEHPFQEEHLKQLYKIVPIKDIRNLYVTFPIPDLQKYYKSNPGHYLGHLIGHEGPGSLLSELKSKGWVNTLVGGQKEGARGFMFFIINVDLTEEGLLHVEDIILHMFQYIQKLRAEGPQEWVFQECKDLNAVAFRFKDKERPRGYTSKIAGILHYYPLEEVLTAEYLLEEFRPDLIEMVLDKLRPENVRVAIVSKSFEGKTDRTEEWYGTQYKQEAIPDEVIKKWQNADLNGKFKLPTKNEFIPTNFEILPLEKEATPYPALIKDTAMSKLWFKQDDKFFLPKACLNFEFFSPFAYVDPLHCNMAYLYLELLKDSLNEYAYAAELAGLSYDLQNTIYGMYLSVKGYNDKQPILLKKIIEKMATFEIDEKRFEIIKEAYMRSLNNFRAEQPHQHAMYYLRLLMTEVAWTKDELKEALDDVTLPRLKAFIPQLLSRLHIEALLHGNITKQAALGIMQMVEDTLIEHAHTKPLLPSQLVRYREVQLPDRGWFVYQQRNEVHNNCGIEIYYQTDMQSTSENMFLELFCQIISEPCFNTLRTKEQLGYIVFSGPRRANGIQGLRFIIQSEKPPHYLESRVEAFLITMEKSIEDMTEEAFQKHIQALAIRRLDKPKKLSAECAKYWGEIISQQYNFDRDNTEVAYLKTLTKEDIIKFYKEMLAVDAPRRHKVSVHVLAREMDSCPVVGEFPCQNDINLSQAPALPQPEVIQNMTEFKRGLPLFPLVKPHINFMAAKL

[4] = molecular target: T2, RNA-binding protein pos-1 (Caenorhabditis elegans, UniProt G5EF15); test: inhibitors of POS-1/mex-3 RNA binding, dose response, biochemical, fluorescence polarization (AID 1964);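 note: purified POS-1 fused to maltose binding protein made in E. coli; potency of compounds blocking POS-1 binding to fluorescent RNA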
T2 sequence (G5EF15 whole entry): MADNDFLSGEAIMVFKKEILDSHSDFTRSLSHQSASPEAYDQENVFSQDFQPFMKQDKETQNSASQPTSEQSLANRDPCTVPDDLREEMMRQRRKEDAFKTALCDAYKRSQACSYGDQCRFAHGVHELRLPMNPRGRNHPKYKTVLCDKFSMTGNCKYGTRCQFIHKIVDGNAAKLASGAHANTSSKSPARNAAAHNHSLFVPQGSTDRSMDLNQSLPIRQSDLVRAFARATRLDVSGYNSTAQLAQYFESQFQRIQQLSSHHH

HEK293 [5] = test: optical interference in Abeta FP readout, dose response, artefact control for IDE activator project, biochemical, fluorescence polarization (AID 588442); format: functional, cell-based; conditions: Homo sapiens
[6] = NIH-3T3 fibroblast cytotoxicity, dose response, cytotoxicity control, cell-based, fluorescence, Alamar Blue, secondary assay (AID 2327); format: functional;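 note: NIH-3T3 mouse fibroblasts cultured with fluconazole at 8 µg/mL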
[7] = molecular target: T3, Zinc finger protein mex-5 (Caenorhabditis elegans, UniProt Q9XUB2); test: MEX-5/TCR-2 RNA interaction inhibitors, dose response, biochemical, C. elegans, fluorescence polarization (AID 1960)
T3 sequence (Q9XUB2 whole entry): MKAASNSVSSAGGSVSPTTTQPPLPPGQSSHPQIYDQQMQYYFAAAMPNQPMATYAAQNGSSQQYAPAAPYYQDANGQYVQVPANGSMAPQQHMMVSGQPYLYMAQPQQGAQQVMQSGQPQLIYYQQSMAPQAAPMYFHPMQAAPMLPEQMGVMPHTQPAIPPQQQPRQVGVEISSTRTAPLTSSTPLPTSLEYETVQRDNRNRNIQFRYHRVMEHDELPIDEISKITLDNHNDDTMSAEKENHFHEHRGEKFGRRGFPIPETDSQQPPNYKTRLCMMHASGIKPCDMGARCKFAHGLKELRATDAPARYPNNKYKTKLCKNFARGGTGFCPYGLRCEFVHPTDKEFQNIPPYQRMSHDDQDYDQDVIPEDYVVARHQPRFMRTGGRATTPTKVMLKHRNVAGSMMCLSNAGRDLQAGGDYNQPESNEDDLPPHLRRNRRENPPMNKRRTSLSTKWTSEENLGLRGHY

Insulin-degrading enzyme [8] = molecular target: T1, Insulin-degrading enzyme; test: activators of recombinant IDE enzyme, dose response, counter-screen for IDE activator project, biochemical, fluorescence polarization (AID 588681)
[9] = molecular target: T4, High affinity choline transporter 1 (Homo sapiens, UniProt Q9GZV3); test: CHT activators, dose response, cell-based, 10-point CRC, membrane potential dye (AID 602376); format: functional
T4 sequence (Q9GZV3 whole entry): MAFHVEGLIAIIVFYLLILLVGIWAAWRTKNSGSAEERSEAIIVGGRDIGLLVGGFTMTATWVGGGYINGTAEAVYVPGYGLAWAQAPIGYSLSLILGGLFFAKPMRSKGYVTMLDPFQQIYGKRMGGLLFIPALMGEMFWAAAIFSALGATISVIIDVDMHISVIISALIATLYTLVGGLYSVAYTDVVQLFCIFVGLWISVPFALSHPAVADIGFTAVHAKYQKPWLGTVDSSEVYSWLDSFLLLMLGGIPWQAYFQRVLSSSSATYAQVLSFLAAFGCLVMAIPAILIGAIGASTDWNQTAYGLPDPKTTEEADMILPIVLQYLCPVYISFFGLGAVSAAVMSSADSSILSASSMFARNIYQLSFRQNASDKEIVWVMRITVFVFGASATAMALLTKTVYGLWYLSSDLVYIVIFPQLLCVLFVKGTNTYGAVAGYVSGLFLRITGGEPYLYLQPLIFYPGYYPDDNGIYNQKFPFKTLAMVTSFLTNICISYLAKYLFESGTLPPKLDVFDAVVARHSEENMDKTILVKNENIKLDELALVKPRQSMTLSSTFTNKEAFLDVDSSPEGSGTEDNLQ

Row | Structure (SMILES) | EC50 [1] | IC50 (HEK293 [2]) | EC50 (Insulin-degrading enzyme [3]) | EC50 [4] | EC50 (HEK293 [5]) | EC50 [6] | EC50 [7] | EC50 (Insulin-degrading enzyme [8]) | EC50 [9]
1 | O=C1c2cccc3c(O)ccc(c23)C(=O)N1Cc1ccccc1 | 0.082 µM (active) | > 89.2 µM (inactive) | > 54.7 µM (inactive) | 2.62 µM (active) | > 54.7 µM (inactive) | 85.7 µM (active) | 0.183 µM (inconclusive) | > 54.7 µM (inactive) | 
2 | COc1cc2c(cc1OC)C(c1cccs1)N(C(S)=NC(C)C)CC2 (centres undefined) |  |  |  |  |  |  |  |  | 17.5 µM (active)
